Data on 31 compounds can be found in PubChem BioAssay (NCI).

Several values for one entry are separate records, joined by “and”; a condition that tells them apart may be missing. Equal values may be shown once.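 Method: 48-hour compound exposure of cells in 96-well plates, five concentrations, linear interpolation of endpoints. GI50 = concentration required for 50% inhibition of growth. At the TGI there is no net growth.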

Assay in all cases: DTP human tumour cell line panel, 48 h
The subject of assay [1] is ACHN renal.
The subject of assay [2] is NCI-H23 lung.
In assay [3] the test system is RXF 393 renal.
Assay [4] has as its system EKVX NSCLC.
Assay [5] relates to M14 melanoma.
The subject of assay [6] is MOLT-4 leukemia.
In assay [7] the test system is CAKI-1 renal.
Assay [8] has as its system RPMI-8226 leukemia.
Assay [9] concerns MCF7 breast.

As to `COC(=O)/C(C#N)=C1\CCC(O)N1` (stereo not drawn), the TGI in [1], in assay [2], in [3], in assay [4], in assay [5] and in assay [6] was over 100 µM throughout. The TGI in [7] and in assay [8] was over 100 µM in each case.
`CN[C@@H](C)[C@H](NC)c1ccccc1`: the TGI in [2], in [3], in assay [4], in [5], in assay [6] and in assay [7] was over 100 µM throughout. The same compound displayed a concentration for total growth inhibition (TGI) in [8] of over 100 µM.
As for `CCOC(=N)CC(=O)Nc1cccc(C)c1C`, the TGI in [1] is over 100 µM; in assay [2] it was over 100 µM; in assay [3], over 100 µM; in assay [4], over 100 µM; in assay [5], over 100 µM; in [6] it was 7.46 µM. This compound returned a total growth inhibition concentration (TGI) in [7] of over 100 µM.
For `CC(=O)c1sc(-c2nc(C)c(C(=O)/C=C\c3ccc(/C=C\C(=O)c4sc(-c5nc(C)c(C(C)=O)s5)nc4C)cc3)s2)nc1C`, the TGI in assay [1], in assay [2], in assay [3], in assay [4], in assay [5] and in [6] was over 100 µM in each case. For the same compound, the TGI in assay [7] and in assay [8] was over 100 µM throughout.
Take `O=C(Cc1ccccc1)NN1C(=O)C(Cl)C1c1ccc(O)cc1` (stereo not drawn): the TGI in assay [1], in assay [2], in assay [3], in assay [4], in [5] and in assay [6] was over 100 µM each time. The TGI in assay [7] and in [8] was over 100 µM throughout.
As for `O=c1[nH]c2cc(Cl)ccc2nc1/C(=N\O)C(O)c1ccc(Cl)cc1Cl` (stereo not drawn), the concentration for total growth inhibition (TGI) in assay [1], in assay [2], in assay [3], in assay [5], in assay [6] and in assay [7] was over 100 µM each time. Further, the total growth inhibition concentration (TGI) in assay [8] was over 100 µM.
In the case of `O=C1Nc2c(ccc(Cl)c2I)C1=O`, the total growth inhibition concentration (TGI) came to 29 µM in assay [1]; 30.7 µM in assay [2]; 31.3 µM in [3]; 36.8 µM in assay [4]; 29.4 µM in [5]; 40.1 µM in assay [6]. Moreover, the total growth inhibition concentration (TGI) in assay [7] was 30.6 µM; in [8], 35.8 µM.
`COc1ccc(C2c3cc(OC)c(OC)cc3C(Cc3ccc([N+](=O)[O-])cc3)C2c2ccc([N+](=O)[O-])cc2)cc1OC` (stereo not drawn): the TGI in assay [1], in assay [2], in [3], in assay [4], in assay [5] and in assay [6] was over 100 µM throughout. Besides, the concentration for total growth inhibition (TGI) in [7] and in assay [8] was over 100 µM in each case.
For the compound `Cc1cc(NS(=O)(=O)c2ccc(Nc3c4ccccc4nc4c(C(=O)NCCN(C)C)cccc34)cc2)no1`, the TGI in assay [1] is 19 µM; in assay [2] it was over 100 µM; in assay [3] it was 22.8 µM; in assay [4], 30.1 µM; in [5], over 100 µM.
`CCCCCCCCCCCCCCCCCC(=O)O[C@H](COC(=O)CCCCCCCCCCC)COC(=O)CCCCCCCCCCCCCCC`: the concentration for total growth inhibition (TGI) in [1], in assay [2], in assay [5], in assay [6], in assay [7] and in assay [8] was over 100 µM in each case.
Consider `COc1cccc(-n2c3nc(=O)n(C)c(=O)c-3nc3ccccc32)c1`, for which the total growth inhibition concentration (TGI) in [1] was 47.3 µM; in assay [2] it was 62 µM; in assay [4], 82.1 µM; in assay [5], 27.7 µM; in assay [6], 40.6 µM; in [7], over 100 µM. This compound also displayed a TGI in [8] of over 100 µM.
Consider `COC(=O)N/N=C(\C)C(CN1CCCCC1)C(C1=C(O)c2ccccc2OC1)c1ccccc1` (stereo not drawn), for which the TGI in assay [1], in assay [2], in [3], in [4], in [5] and in assay [6] was over 100 µM each time. Besides, the total growth inhibition concentration (TGI) in assay [7] and in assay [8] was over 100 µM throughout.
As for `O=C1CC2C(=O)N(Cc3ccccc3)C1C=C2S(=O)(=O)c1ccccc1` (stereo not drawn), the TGI in assay [1], in [2], in [3], in [4], in assay [5] and in assay [6] was over 100 µM in each case.
Take `COC(=O)/C(C)=C/[N+](=O)[O-]`: the TGI in [1] came out at 35.5 µM; in assay [2], 41.2 µM; in [3], 35.6 µM; in assay [4] it was 63.6 µM; in assay [5], 29.2 µM; in [6], 39.4 µM. The TGI was 8.14 µM in assay [7] and 7.36 µM in assay [8].
With `C[C@@]12CCCc3coc(c31)C(=O)c1cc3c(cc12)C(=O)C=CC3=O`, the GI50 in assay [1], in assay [3], in assay [5], in [6], in assay [7] and in assay [8] was over 1 µM throughout. Also, the TGI in [1] was > 1 µM and 25.4 µM; in assay [2] it was 29.7 µM; in assay [3], > 1 µM and 29.1 µM; in assay [4], 34.1 µM; in [5] it was > 1 µM and 29.7 µM; in assay [6] it was > 1 µM and 6.16 µM. Also, the TGI in [7] was > 1 µM and 28.5 µM; in assay [8], > 1 µM and 35 µM.
On to `CC1(C)O/C(=C\c2ccccc2)C(=O)/C(=C/c2ccccc2)O1`, for which the TGI was over 100 µM in assay [1]; over 100 µM in assay [2]; 47.6 µM in assay [3]; over 100 µM in assay [4]; over 100 µM in assay [5]; 43.9 µM in assay [6]. The results for the TGI in assay [7] and in assay [8] were over 100 µM and 54.6 µM, respectively.
For the compound `O=S1OC2(c3ccccc3-c3ccccc32)c2ccccc21` (stereo not drawn), the concentration for total growth inhibition (TGI) in assay [1], in [2], in assay [3], in assay [4], in assay [5] and in [6] was over 100 µM throughout. Besides, the TGI in assay [8] is over 100 µM.
With `Cc1cc(C)c(C2[C@H]3C(=O)N(c4ccc(Cc5ccc(N6C(=O)[C@@H]7ON(c8ccccc8)C(c8c(C)cc(C)cc8C)[C@@H]7C6=O)cc5)cc4)C(=O)[C@H]3ON2c2ccccc2)c(C)c1` (stereo partly drawn), the concentration for total growth inhibition (TGI) in [1], in assay [2], in [3], in assay [4], in assay [5] and in assay [6] was over 100 µM each time. The TGI in [7] and in assay [8] was over 100 µM each time.
Consider `COC(=O)CCC(=O)CC1CC(=O)C2CCCN12` (stereo not drawn), for which the concentration for total growth inhibition (TGI) in assay [1], in assay [2], in assay [3], in [4], in assay [5] and in assay [6] was over 100 µM throughout. Besides, the TGI in [7] and in assay [8] was over 100 µM throughout.
As for `CC12CCCCC1(C)C2Sc1ccccc1` (stereo not drawn), the TGI in assay [1] was over 100 µM; in assay [2], over 100 µM; in assay [3] it was over 70.3 µM; in [4] it was over 96.8 µM; in [5], over 100 µM; in [6], 41.6 µM. Further, the TGI in assay [7] was over 100 µM; in assay [8] it was 40.3 µM.
Take `CC1=NN(C(=O)CC(=O)N(C(=O)c2ccccc2Cl)c2ccc(C)cc2)C(=O)C1N=Nc1ccc([N+](=O)[O-])cc1` (stereo not drawn): the TGI in assay [1] is over 100 µM; in assay [2], over 100 µM; in assay [3] it was 77.5 µM; in assay [4], over 100 µM; in assay [5], over 100 µM; in assay [6], over 100 µM. Besides, the TGI is over 100 µM in assay [7] and over 70.3 µM in assay [8].
For `Nc1nc(CCl)nc(Nc2ccccc2)n1`, the concentration for total growth inhibition (TGI) in assay [1] came out at 66.1 µM; in [2], 38.7 µM; in assay [5], 32.8 µM; in assay [6], 37.2 µM; in assay [7], 24.8 µM; in assay [8], 19.8 µM.
`C[n+]1cc(C(O)c2ccc3c(c2)OCO3)c2ccccc2c1` (stereo not drawn): the concentration for total growth inhibition (TGI) is over 100 µM in assay [1]; 62.5 µM in [3]; over 100 µM in [4]; 91.7 µM in assay [5]; 55.5 µM in assay [6]; 69.4 µM in assay [7]. In assay [8], this compound registered a concentration for total growth inhibition (TGI) of 98.8 µM.
For `CN(C)C(=S)/N=c1\ss/c(=N\C(=S)N(C)C)n1-c1ccc(Cl)c(Cl)c1`, the TGI in assay [1], in assay [2], in assay [3], in assay [4], in assay [5] and in [6] was over 100 µM in each case. In addition, the TGI in [7] and in assay [8] was over 100 µM in each case.
`CCCCOC(=O)NC(=O)c1cn(CCCOC(=O)NCCCCCCNC(=O)OCCCn2cc(C(=O)NC(=O)OCCCC)c(=O)[nH]c2=O)c(=O)[nH]c1=O`: the TGI in assay [1], in [2], in assay [3], in assay [4], in assay [5] and in [8] was over 100 µM throughout.
As for `COc1cc(C)c2c(c1C)OC(=O)c1c(C)c(Cl)c(O)c(C=O)c1O2`, the TGI in [1] is 35.9 µM; in [2], 32 µM; in assay [4], 26.4 µM; in assay [5] it was 52 µM; in assay [6], 32 µM; in assay [7] it was over 100 µM. For the same compound, the TGI in [8] was 33.4 µM.
In the case of `COC(=O)/C(C=O)=C/Sc1ccccc1`, the TGI in assay [1] was over 100 µM; in assay [2] it was over 100 µM; in [3], 51.7 µM; in assay [4], over 100 µM; in [5] it was 42.6 µM; in assay [6], over 100 µM. In addition, the total growth inhibition concentration (TGI) in assay [7] was 62 µM; in assay [8], over 100 µM.
Consider `Nc1ccn(C2(CO)C=C(CO)C(O)C2O)c(=O)n1` (stereo not drawn), for which the total growth inhibition concentration (TGI) in assay [1], in assay [3], in assay [4], in assay [5], in [6] and in [7] was over 25.8 µM throughout. This compound came in with a TGI in [8] of over 25.8 µM.
Turning to `Cc1ccc(S(=O)(=O)NCCNc2nccc(-c3c(-c4ccc(F)cc4)nc4sccn34)n2)cc1`, the GI50 in [9] is 1.48 µM; in assay [1] it was 2.3 µM; in assay [2], 7.14 µM; in [3], 4.02 µM. For the same compound, the total growth inhibition concentration (TGI) is over 100 µM in [9], over 100 µM in [1], 70.9 µM in assay [2] and 29.4 µM in assay [3].
Take `COc1ccc(-c2oc3cc(O)c(OC)c(O)c3c(=O)c2OC)cc1O`: the 50% growth inhibitory concentration (GI50) in [9] is 0.316 µM; in assay [1] it was 1.52 µM; in assay [2], 0.443 µM; in [3] it was 0.171 µM; in assay [4] it was 3.43 µM; in [6], 0.509 µM. Besides, the GI50 in assay [7] was 2.38 µM; in assay [8], 0.417 µM. In addition, the concentration for total growth inhibition (TGI) in assay [9], in [1], in assay [2], in [3], in assay [4] and in assay [6] was over 100 µM each time. Further, the concentration for total growth inhibition (TGI) in [7] is 28.3 µM; in assay [8], over 100 µM.
`COc1cc2ccc3c4cc(OC)c(OC(C)C)cc4cnc3c2cc1OC`: the TGI in assay [1], in assay [2], in assay [3], in assay [4], in [5] and in [6] was over 100 µM in each case. The TGI in assay [7] and in [8] was over 100 µM each time.

As usually defined, the TGI is the concentration giving total growth inhibition. A higher TGI goes with less potent growth arrest. As a reminder, the GI50 is the concentration at which growth is held to half of that of the control.
